{"source": "patent US20040235873A1", "about": "“Antiinflammatoric and antitussive compositions” (priority 2001, published 2004)", "type_in_all_cases": "in vivo, Hartley male guinea pigs", "key": {"[1]": {"test_system": "LTD4-induced airway hypersensitiveness in guinea pigs", "assay": "LTD4-induced airway hypersensitive reaction", "settings": "for ID50 of airway hypersensitiveness inhibition: intraduodenal administration 30 minutes before LTD4 inhalation, guinea pigs; for Airway hypersensitiveness inhibition versus control group: orotic acid 10 to 30 mg/kg, zinc orotate 10, 30 mg/kg to the duodenum", "description": "This was to confirm the presence or absence of antiasthmatic effect of orotic acid and zinc orotate. Concretely, the effect of orotic acid and zinc orotate against leukotriene D4 (hereinafter abbreviated to LTD4)-induced airway hypersensitive reaction was investigated in the manner described below.\nExpression of LTD4-induced airway hypersensitiveness was carried out according to the method of Sato et al [Clinical and Experimental Allergy, 26, 957-963 (1996)], as shown below:\n(§1) Hartley male guinea pigs (from Nippon SLC) were raised at a constant temperature (22 to 23° C.) and a constant humidity (50 to 60%) for 2 weeks, and healthy animals of those having a body weight of from 150 to 250 g were used in the test. The guinea pigs were anesthetized with urethane (1.2 g/kg) and subjected to tracheotomy and cannulation. The tracheal cannula was connected to an artificial respiration device for small animals (Model 7025, UGO BASIL by VARASE), and artificial respiration (breathing rate, 60/min; 10 ml/kg) was performed. As an airway contraction index thereof, the pulmonary inflation pressure (hereinafter abbreviated to […], its unit being cmH2O) of the test animal was measured via a pressure transducer (TP-603, by Nippon Kodensha). In addition, a cannula was inserted into the carotid […] of the test animal, and the blood pressure through it was also measured via a pressure transducer (Life KitDX-360, by Nippon Kodensha). After the operation, the guinea pigs were left as such for about 5 minutes, and after the base PIP thereof was stabilized, the test with them was started. 50 μg/kg acetylcholine (hereinafter referred to as ACh, by Sigma) was intravenously administered to each test animal to induce airway contraction therein. After the elevated PIP was lowered to the base line thereof, ACh of the same concentration was again intravenously administered. This operation was repeated until the PIP increase (ΔPIP) was stabilized. After the ΔPIP stabilization was confirmed, ACh was intravenously administered\n(§2) (30 μg/kg or 40 μg/kg), and the value ΔPIP in this stage was referred to as a Pre value. 30 minutes thereafter, each test animal was made to inhale 0.1 µg/ml of LTD4 (by Funakoshi) for 30 seconds via an ultrasonic nebulizer (NE-U12, by Omron), and after 15 minutes, ACh was again intravenously administered (30 μg/kgor40μg/kg) to each test animal to induce airway contraction therein. The value ΔPIP in this stage was rendered as a Post value. Relative to those of the LTD4 administration group, the animals of the control group were made to inhale saline in place of LTD4. The Post value and the Pre value were compared with each other in the control group and the LTD4 administration group, and the difference was an index of airway hypersensitiveness expression.\n(§3) 30 minutes before the start of the LTD 4 inhalation, a test substance was administered to the duodenum of each test animal. In place of the test substance, 0.5% methyl cellulose (hereinafter abbreviated to MC) was administered to the animals of the control group relative to those of the test substance-administration group.\nThe data obtained were expressed as the mean value±standard error thereof. A statistical analysis soft SAS was used for significance test. For significance test of two groups, paired t-test was carried out (FIG. 1, FIG. 2); and for comparison test of multiple groups, Bartlet test was followed by 1-way ANOVA and Dunnett's multiple comparison test. […]"}, "[2]": {"test_system": "ACh-induced airway contraction in guinea pigs", "assay": "Acetylcholine-induced pulmonary inflation pressure change before and after saline inhalation (preliminary test)", "settings": "for PIP increase (ΔPIP) induced by intravenous ACh, Post value / PIP increase (ΔPIP) induced by intravenous ACh, Pre value / Difference between Pre value and Post value of ACh-induced PIP increase: 30 mg/kg to the duodenum prior to saline inhalation; for PIP increase (ΔPIP) induced by intravenous ACh, Post value: after saline inhalation; for PIP increase (ΔPIP) induced by intravenous ACh, Post value / PIP increase (ΔPIP) induced by intravenous ACh, Pre value: mean±standard error of three cases; for PIP increase (ΔPIP) induced by intravenous ACh, Pre value: before saline inhalation; for Difference between Pre value and Post value of ACh-induced PIP increase: paired t-test", "description": "as §1, §2, §3\nThe data obtained were expressed as the mean value±standard error thereof. A statistical analysis soft SAS was used for significance test. For significance test of two groups, paired t-test was carried out (FIG. 1, FIG. 2); and for comparison test of multiple groups, Bartlet test was followed by 1-way ANOVA and Dunnett's multiple comparison test. In every test, p<0.05 indicates a significant difference.\nThe PIP increase (Pre value, white column) induced by the intravenous ACh administration (40 µg/kg) was 8.40±0.76 cmH2O; while the PIP increase (Post value, black column) after the inhalation of saline, as used for a solvent for LTD4 was 8.30±1.07cmH2.\nOrotic acid and zinc orotate each were suspended in 0.5% MC just before use.\nOrotic acid, zinc orotate (30 mg/kg) or 0.5% MC was intraduodenally administered 30 minutes before the inhalation of saline. The data obtained are expressed as the mean value±standard error of three cases. N.S. (not significant) indicates no statistically significant difference."}, "[3]": {"test_system": "ovalbumin (OA)-sensitized guinea pigs", "assay": "Cell invasion in bronchovesicular washing fluid (BALF) of ovalbumin-sensitized guinea pigs after antigen induction", "settings": "for Number of eosinophils invaded in BALF / Number of the total cells invaded in BALF: 24 hours after induction", "description": "The present test was carried out according to the method mentioned below, with reference to the method of Lagente et al [Clin. Exp. Allergy, 23, 1002-1010 (1993)] and the method of Dunn et al [Am. Rev. Resp. Dis., 137, 541-547 ([…])].\nHartley male guinea pigs (from Nippon Charles River) were raised at a constant temperature (22 to 23° C.) and a constant humidity (50 to 60%) and healthy animals of those having a body weight of from 350 to 450 g were used in the test. The guinea pigs were put in a plastic box (30×50×30 cm), and made to inhale 2 mg/ml of a solution of ovalbumin (hereinafter sometimes abbreviated to OA, from Sigma Aldrich) for30minutes, twice at an interval of 48 hours for […] sensitization. An ultrasonic nebulizer (NE-U12, by Omron) was used for the inhalation. Antigen induction in the test animals was carried out 13 to 15 days after the final sensitization, in the same plastic box as that for the sensitization. For it, the test animals were made to inhale 1% (w/v) OA solution for 15 minutes to induce reaction. Those of the control group with no OA inhalation were made to inhale saline.\nIn this stage, a histamine H1-receptor antagonist, pyrilamine (by Sigma Aldrich) was intravenously administered (2 mg/kg) to the test animals 30 minutes before the antigen induction, for evading animal death owing to anaphylactic shock. Orotic acid, zinc orotate and a PDE4 inhibitor (rolipram, obtained through chemical synthesis) were orally administered one hour before the antigen induction. To those of the control group not administered with orotic acid, zinc orotate or rolipram, 0.5% (w/v) MC solution was administered.\n24 to 72 hours after the antigen induction, the bronchovesicles of the test animals were washed (BAL). Namely, the sensitized guinea pigs were anesthetized with pentobarbital (intravenous-administration, 100 mg/kg), and 5 ml of saline was injected into the guinea pigs via a tracheal cannula through a disposable syringe (by Terumo). In about 5 seconds, the saline injected into the guinea pigs was recovered. This operation was repeated twice to collect the bronchovesicular washing fluid (BALF). BALF was centrifuged at 2500 rpm (1250 ×g) at 4° C. for 10 minutes. The supernatant was removed by suction, and the deposited cells were suspended in one ml of saline. In the suspension, the number of all leucocytes was counted with an automatic cell counter (Celltec MEK-4300, by Nippon Kodensha). A part of the cells were formed into a smear with Cytospin III (by Shand on Southern Instruments). […] Specifically, eosinophils (Eos), neutrophils (Neu), macrophages (Mac), lymphocytes (Lym) and other cells (Other) were counted, and their ratio was calculated. The number of the respective cells was calculated by multiplying the number of all leucocytes by the ratio of the cells counted in the fraction.\nThe data obtained were expressed as the mean value±standard error thereof. A statistical analysis soft SAS was used for significance test. For significance test of the two groups, Student's t-test was carried out; and for comparison test of multiple groups, Bartlet test was followed by 1-way ANOVA and Dunnett's multiple comparison test. […]\nOrotic acid was orally administered 1 hour before the OA inhalation. The data obtained are expressed as the mean value ±standard error of 9 or 10 cases.\nZinc orotate was orally administered 1 hour before the OA inhalation. The data obtained are expressed as the mean value±standard error of 9 or 10 cases. […]"}, "[4]": {"settings": "100 or 300 mg/kg orally 1 hour before OA antigen induction"}, "[5]": {"settings": "100 mg/kg orally 1 hour before OA antigen induction"}}}
{"compound": "zinc orotate", "values": [{"measurement": "ID50 of airway hypersensitiveness inhibition", "setting": "[1]", "result": 16.2, "unit": "mg/kg"}, {"measurement": "Airway hypersensitiveness inhibition versus control group", "setting": "[1]", "result": "showed airway hypersensitiveness inhibition that depends on the increase in the dose"}, {"measurement": "PIP increase (ΔPIP) induced by intravenous ACh, Post value", "setting": "[2]", "result": "8.00±1.44", "unit": "cmH2O"}, {"measurement": "PIP increase (ΔPIP) induced by intravenous ACh, Pre value", "setting": "[2]", "result": "7.67±1.20", "unit": "cmH2O"}, {"measurement": "Difference between Pre value and Post value of ACh-induced PIP increase", "setting": "[2]", "result": "no significant difference"}, {"measurement": "Number of eosinophils invaded in BALF", "setting": "[3]; [4]", "result": "decreased"}, {"measurement": "Number of the total cells invaded in BALF", "setting": "[3]; [4]", "result": "decreased"}]}
{"compound": "O=C(O)c1cc(=O)[nH]c(=O)[nH]1", "note": "[orotic acid, uracil-4-carboxylic acid]", "values": [{"measurement": "Statistical significance of airway hypersensitiveness inhibition", "setting": "[1]; dose of 30 mg/kg to the duodenum, versus MC control, p<0.05", "result": "showed a statistical significance"}, {"measurement": "ID50 of airway hypersensitiveness inhibition", "setting": "[1]", "result": 20.1, "unit": "mg/kg"}, {"measurement": "Airway hypersensitiveness inhibition versus control group", "setting": "[1]", "result": "showed airway hypersensitiveness inhibition that depends on the increase in the dose"}, {"measurement": "PIP increase (ΔPIP) induced by intravenous ACh, Post value", "setting": "[2]", "result": "7.33±1.20", "unit": "cmH2O"}, {"measurement": "PIP increase (ΔPIP) induced by intravenous ACh, Pre value", "setting": "[2]", "result": "7.50±1.04", "unit": "cmH2O"}, {"measurement": "Difference between Pre value and Post value of ACh-induced PIP increase", "setting": "[2]", "result": "no significant difference"}, {"measurement": "Influence on ACh-induced airway contraction", "setting": "[2]; FIG. 1, 30 mg/kg intraduodenal", "result": "did not have any influence on airway contraction"}, {"measurement": "Number of eosinophils invaded in BALF", "setting": "[3]; [5]", "result": "decreased"}, {"measurement": "Number of the total cells invaded in BALF", "setting": "[3]; [5]", "result": "decreased"}]}
{"compound": "COc1ccc(C2CNC(=O)C2)cc1OC1CCCC1", "note": "(centres unmarked) [rolipram, reference compound]", "values": [{"measurement": "Effect against cell invasion, 24 hours compared with 48 hours after antigen induction", "setting": "[3]; orally one hour before antigen induction, not illustrated", "result": "any significant difference in the cell invasion was not found between 24 hours and 48 hours"}]}
